Several values for one entry are separate records, joined by “and”; a condition that tells them apart may be missing. Equal entries are not always repeated.
Key:
Collagenase type IV = assay: Assay of Collagenase (DQ-gelatin fluorescence); assay type: biochemical; details: DQ-gelatin substrate
From the text: Collagenase type IV and DQ-gelatin was applied in this experiment, where DQ^198 (EnzChek Gelatinase/Collagenase Assay Kit, E-12055) is a kind of fluorescent material, which can bonded with gelatin to form DQ-gelatin. […] Thus, the principle of this experiment is that the activity of collagenase is examined by measuring emission intensity of DQ fluorescent as that the chemical bonding between DQ-gelatin can be enzymatically digested by collagenase.
The fluorescence intensity can be measured in a florescence micro-plate reader equipped with standard fluoresce in filters. Digested product from the DQ-gelatin and DQ collagen substrate has absorption wavelength at 495 nm and fluorescence emission wavelength at 515 nm. Therefore, the activity of collagenase can be determined when the fluorescence emission intensity at 515 nm larger than the blank. In other word, the resulting fluorescence emission intensity would decrease at 515 nm if the collagenase inhibitors were applied. The results of collagenase assay are provided on Table 7, and all values are present as Mean±S.E.M.

HT-1080 cell lines = assay: MTT cell viability assay; assay type: cell-based, human; details: HT-1080, 22 h + 2 h MTT, blank = 100, mean ± S.E.M.
From the text: (§1) HT-1080 cell line (ATCC:CCL-121) is a human skin fibroblasts tumor, which is a kind of adherent cell lines, secreting gelatinase, MMP-2 and MMP-9, to extracellular space.
(§2) Before carrying out any experimental process of HT-1080 cell lines, in order to enable HT-1080 cells to secrete more MMP-2 and MMP-9 to extracellular space, the medium RPMI-1640 containing 0.5% FBS (without phenol red) was applied when conducting the subcultivation process. After centrifugation, the medium RPMI-1640 containing only 0.5% FBS was added into centrifugal vials to resuspend the cells, and 20 μL of cell suspension solution was transferred into eppendorfs to mixed with 20 μL Trypan blue for cell dyeing. Finally, calculation of the cell concentration was accomplished by using hemocytometer through optical microscope.
(§3) Suitable amount of the medium RPMI-1640 (based on the cell concentration obtained previous) containing only 0.5% FBS (without phenol red) was applied into the remaining the cell suspension solution, as the resulting concentration of the cell suspension solution around 5×10^5 cells/mL. Afterwards, 500 μL of cell suspension solutions was transferred onto 24-well cell culture plates, followed by 24 hours incubation at 37° C. for the further experiments.
To test the cytotoxicity of 4GX and 4G to HT-1080 cell lines, the cell viability assay need to be conducted. MTT cell viability assay was chosen for this experiment.
The principle of a cell viability assay is the conversion of a yellow tetrazolium salt (MTT; 3-(4,5-Dimethylthiazol-2-yl)-2,5-diphenyl tetrazolium bromide) into a purple product formazan via […] in intact mitochondria, where formazan can be dissolved in dimethylsulfoxide (DMSO). Thus, the increasing yield of resulting product formazan stands for increasing the percentage of cell vitality.
The cell suspension solution (with concentration about 5×10^5 cells/mL) of the previous cell pre-treatment process was placed to a 24-well cell culture plates with 24 hours of incubation under 5% of CO2/air at 37° C. in 70% of humidity, in order to allow cells to grow adherent on the well. After 24 hours of incubation, 1 μL of the solutions containing chemical compounds, 4GX and 4G, prepared in different concentrations (5-100 μM) were applied into each well respectively as vehicle controls, whereas the well applied without any chemical compounds as blank. Finally, the 24-well cell culture plate was placed in incubator for 22 hours of incubation.
Subsequently, the following steps need to avoid the light. After 22 hours of incubation, 50 μL of 5.5 mg/mL MTT was applied in each well for 2 hours of incubation at 37° C. Afterwards, the supernatant was removed from 24-well cell culture plates, and 400 μL DMSO was applied to dissolve the purple product formazan for 15 minutes by shaker at 50 rpm. 150-200 μL of the solution were taken out from each well to examine the adsorption value by ELISA at wavelength 550 nm.
The formula for calculation of cell vitality is presented following: (Adsorption value of vehicle control/blank)×100%

pro MMP-9 = assay: Gelatin zymography of HT-1080 supernatants, pro MMP-9; assay type: cell-based, human; details: HT-1080 supernatant; for Inhibitory effectiveness (%) pro MMP-9: 24 h; for IC50: gelatin zymography
From the text: as §1, §2, §3
(§4) To evaluation the inhibitory effectiveness of gelatinase of 4GX and 4G, a gelatin zymography is needed to be conducted.
(§5) The cell suspension solution (with concentration about 5×10^5 cells/mL) of the previous cell pre-treatment process was placed to a 24-well cell culture plates for 24 hours of incubation at 37° C. Subsequently, 1 μL of the solutions, containing 4GX and 4G, in different concentrations from 10 to 100 μM (10, 20, 50, 100 μM) were applied into each well respectively as vehicle controls, 1 μL of catechin in concentration of 100 μM was applied into the well as a positive control, whereas the well applied without any compounds is as blank, followed by 24 hours of incubation at 37° C. Afterwards, the plate was placed into ice to terminate the reaction, the supernatant of each well were taken out separately for the further experiments.
(§6) Supernatants and two volume of a sample loading dye (500 mM Tris-HCL, 25% Glycerol, 10% SDS, 0.32% Bromophenol blue, pH 6.8) and one volume of a dye were mixed together to use as the indicator of running end point. Afterwards, the enzyme activity was analyzed by polyacrylamide gel electrophoresis (PAGE).
(§7) 1% of gelatin and 10% of polyacrylamide were contained in the gel of PAGE, where gelatin acts as the substrate for gelatinase (pro MMP-2, MMP-2 and pro MMP-9). The running buffer was 25 mM Tris-base, 192 mM […] and 0.1% sodium dodecyl sulfate (SDS), pH 8.3, and the power supply was 125 V/80 mA.
(§8) Following the electrophoresis, the gel was washed with 2.5% Triton X-100 at 24° C. twice in 30 minutes to remove the dye and SDS from the gel. Afterwards, the gel was incubated with a reacting buffer (50 mM Tris-base, 200 mM NaCl, 5 mM CaCl2 and 0.02% Brij 35, pH 7.5) at 37° C. for 24 hours in a thermostatic cabinet, enabling gelatinase enzymatically react with gelatin. The fixing solution (7% acetic acid and 40% methanol) was subsequently applied to the gel for 30 minutes, in order to secure the proteins onto the gel. After 30 minutes, the gel was stained with Brilliant Blue G-Colloidial, and then destained with the destain solution (10% acetic acid and 40% methanol) for visualization of the gelatinase reactive positions against the background of the gel.
(§9) Finally, the gel was then analyzed by image analysis system (Vilber Lounmat, France), and the analysis software was Bio-1 Dversion 99. Setting the blank as reference, setting as 1, and the other groups are presented in relative values in contrast to blank.
(§10) The formula for calculating the inhibitory effectiveness is presented below. The results of gelatin zymography are provided on Table 6, and all values are presented as Mean±S.E.M. (the values of blank−vehicle controls)×100%

pro MMP-2 = assay: Gelatin zymography of HT-1080 supernatants, pro MMP-2; assay type: cell-based, human; details: HT-1080 supernatant; for Inhibitory effectiveness (%) Pro MMP-2: 24 h; for IC50: gelatin zymography
From the text: as §1, §2, §3, §4, §5, §6, §7, §8, §9, §10

MMP-2 = assay: Gelatin zymography of HT-1080 supernatants, MMP-2; assay type: cell-based, human; details: HT-1080 supernatant; for Inhibitory effectiveness (%) MMP-2: 24 h; for IC50: gelatin zymography
From the text: as §1, §2, §3, §4, §5, §6, §7, §8, §9, §10

[1] = Transdermal penetration test, Franz-type diffusion cell; assay type: in vitro ADME, mice; details: for Average (μg) amount of 4G in the skins: average of three
From the text: Franz-type diffusion cell is the apparatus for this experiment, where its structure as a set of vertical double-diffusion and detachable glass containers. The upper donor chamber is a hollow cylindrical for the sample injection, and the bottom of the upper donor chamber has a contacting surface. The lower receptor chamber is double-layered hollow cylindrical diffusion container, where the inner layer of the receptor chamber made of glass contains a fluid for sampling, the outer layer of the receptor chamber is filled with circulating water kept at 37±1° C. for the human body simulation. The contact area between the donor chamber and the receptor chamber is 0.785 cm^2 (the actual penetration area), and the intermediate is fixed with nude and white mice (all three) skins (epidermis facing upwards) by metal clips as the in vitro transdermal penetration barriers.
The experimental method is presented below. First, 4G was dissolved in 30 wt % propylene glycol aqueous solution, followed transferring 0.5 mL of the aqueous solution (containing 0.25 mg) of 4G into the donor chamber of the Franz-type diffusion cell, and top of the open-ended donor chamber was covered with Parafilm® tightly, and the inner receptor chamber was filled with 5.5 mL of the buffer solution (30 wt % ethanol, phosphate buffer solution, pH 7.4), with continuously stirring at 600 rpm. 0.3 mL of the buffer solution was respectively sampled at time points of 1, 2, 4, 6, 8, 10, 12, 24, 36, and 48 hours, and with complete replacement of 0.3 mL of the buffer solution to keep fluid in the diffusion cell the same volume. Finally, the final compound of 4G accumulated in the fluid of the receptor chamber, was analyzed by liquid chromatography tandem mass spectrometry (LC-MS) to investigate the amount of the 4G penetrating through skins and reaching to the blood vessel,
After completing the previous experimental step, the compound, 4G, on the surface of nude and white mice skin were washed with deionized water. Afterwards, the skins were trimmed into the circles with diameter equal to the donor chamber, and following record the skin weight. The skins then placed in homogenizer with 1 mL alcohol at speed 300 rpm for 5 minutes, and followed with centrifugation process at 10000 rpm for 5 minutes. The supernatant was filtered by 0.45 μm PVDF and quantified the content of 4G by LC-MS.

Compound	Inhibitory effectiveness % (collagenase) (Collagenase type IV; 20 μM)	Inhibitory effectiveness % (collagenase) (Collagenase type IV; 40 μM)	Vitality (%) (HT-1080 cell lines; 10 μM)	Vitality (%) (HT-1080 cell lines; 20 μM)	Vitality (%) (HT-1080 cell lines; 50 μM)	Vitality (%) (HT-1080 cell lines; 100 μM)	Inhibitory effectiveness (%) pro MMP-9 (pro MMP-9; 10 μM)	Inhibitory effectiveness (%) pro MMP-9 (pro MMP-9; 20 μM)	Inhibitory effectiveness (%) pro MMP-9 (pro MMP-9; 50 μM)	Inhibitory effectiveness (%) pro MMP-9 (pro MMP-9; 100 μM)	IC50 (pro MMP-9)	Inhibitory effectiveness (%) Pro MMP-2 (pro MMP-2; 10 μM)	Inhibitory effectiveness (%) Pro MMP-2 (pro MMP-2; 20 μM)	Inhibitory effectiveness (%) Pro MMP-2 (pro MMP-2; 50 μM)	IC50 (pro MMP-2)	Inhibitory effectiveness (%) MMP-2 (MMP-2; 10 μM)	Inhibitory effectiveness (%) MMP-2 (MMP-2; 20 μM)	Inhibitory effectiveness (%) MMP-2 (MMP-2; 50 μM)	IC50 (MMP-2)	Inhibitory effectiveness (%) Pro MMP-2 (pro MMP-2; 100 μM)	further results
c1cnc2c(c1)ccc1cccnc12 [1, 10-phenanthroline, reference compound]	12.80%	38.41%																			
O=C(OCC1OC(OC(=O)c2cc(O)c(O)c(O)c2)C(OC(=O)c2cc(O)c(O)c(O)c2)C(OC(=O)c2cc(O)c(O)c(O)c2)C1OC(=O)c1ccc(O)cc1)c1cc(O)c(O)c(O)c1 [4GX, 1,2,3,6-tetra-O-galloyl-4-O-(4-hydroxybenzoyl)-β-D-glucopyranoside]			97.18 ± 6.52%	100.78 ± 4.06%	105.48 ± 2.18%	94.31 ± 9.76%	3.80%	15.83%	32.17%	45.47%	> 100 µM	15.83%	31.53%	62.30%	30 µM	25.46%	63.57%	76.20%	16.3 µM		
catechin [reference compound]										64.30% and 76.07%										56.30% and 72.97%	Inhibitory effectiveness (%) MMP-2 (MMP-2; 100 μM): 86.77% and 85.00%
O=C(OC[C@H]1O[C@@H](OC(=O)c2cc(O)c(O)c(O)c2)[C@H](OC(=O)c2cc(O)c(O)c(O)c2)[C@@H](OC(=O)c2cc(O)c(O)c(O)c2)[C@@H]1O)c1cc(O)c(O)c(O)c1 [4G, 1,2,3,6-tetra-O-galloyl-β-D-glucose]	50% and 52.12%	61.73%	93.45 ± 4.91%	87.30 ± 1.93%	93.06 ± 4.41%	87.81 ± 7.83%	18.73%	28.70%	44.13%	53.50%	> 100 µM	10.13%	16.80%	30.13%	99.6 µM	29.93%	48.07%	73.27%	23 µM	39.40%	accumulated amounts of 4G of the fluid in the receptor chamber ([1]; nude and white mice skins, sampled 1 to 48 hours, LC-MS): nearly zero; Percentage of 4G in the mouse skins ([1]; nude mice skin): 27.84%; Average (μg) amount of 4G in the skins ([1]; nude mice skin): 1.17 ± 0.21 µg; The amount of 4G in the skins ([1]; nude mice skin, single samples, 0.25 mg in donor chamber, after 48 hours): 1.42 µg and 1.02 µg and 1.09 µg; Percentage of 4G in the mouse skins ([1]; white mice skin): 74.84%; Average (μg) amount of 4G in the skins ([1]; white mice skin): 6.07 ± 2.43 µg
